Measured values reported in patent US20100298141A1, “SUBSTITUTED PYRIDINE N-OXIDE HERBICIDES” (E. I. DU PONT DE NEMOURS AND COMPANY, priority 2007, published 2010).

Experiments:
[1] = system: barnyardgrass; assay: Test A pre-/postemergence greenhouse test; assay type: in vivo, Echinochloa crus-galli; details: for Plant response rating, Barnyardgrass: 0 to 100 scale where 0 is no effect and 100 is complete control; for Barnyardgrass plant response rating: 0 to 100 scale
Summary of the method: (§1)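 Greenhouse herbicide screen, pre- and postemergence in parallel. Soil: loam plus sand. Formulation: non-phytotoxic solvent mix with surfactant. Postemergence stage: one to two leaves, 2–10 cm height. Evaluation: visual injury, compared with untreated controls, about 10 days after treatment.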

[2] = system: crabgrass; assay: Test A pre-/postemergence greenhouse test; assay type: in vivo, Digitaria sanguinalis; details: for Plant response rating, Crabgrass, Large: 0 to 100 scale where 0 is no effect and 100 is complete control; for Crabgrass, Large plant response rating: 0 to 100 scale
Summary of the method: as §1

[3] = system: velvetleaf; assay: Test A pre-/postemergence greenhouse test; assay type: in vivo, Abutilon theophrasti; details: for Plant response rating, Velvetleaf: 0 to 100 scale where 0 is no effect and 100 is complete control; for Velvetleaf plant response rating: 0 to 100 scale
Summary of the method: as §1

[4] = system: corn; assay: Test A pre-/postemergence greenhouse test; assay type: in vivo, Zea mays; details: for Plant response rating, Corn: 0 to 100 scale where 0 is no effect and 100 is complete control; for Corn plant response rating: 0 to 100 scale
Summary of the method: as §1

[5] = system: green foxtail; assay: Test C pre-/postemergence test; assay type: in vivo, Setaria viridis; details: Postemergence; for Plant response rating, Foxtail, Green: scale 0 to 100, 0 no effect, 100 complete control
Summary of the method: (§2)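 Seeds were planted and treated preemergence with test chemical in a non-phytotoxic solvent mixture containing surfactant. Postemergence applications of the same formulation went onto plants 2 to 18 cm tall (1- to 4-leaf stage). A dash marks no test result.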

[6] = system: Italian ryegrass; assay: Test C pre-/postemergence test; assay type: in vivo, Lolium multiflorum; details: Postemergence; for Plant response rating, Ryegrass, Italian: scale 0 to 100, 0 no effect, 100 complete control
Summary of the method: as §2

[7] = system: bermudagrass; assay: Test C pre-/postemergence test; assay type: in vivo, Cynodon dactylon; details: Postemergence; for Plant response rating, Bermudagrass: scale 0 to 100, 0 no effect, 100 complete control
Summary of the method: as §2

[8] = system: corn; assay: Test C pre-/postemergence test; assay type: in vivo, Zea mays; details: Postemergence; for Plant response rating, Corn: scale 0 to 100, 0 no effect, 100 complete control
Summary of the method: as §2

[9] = system: crabgrass; assay: Test C pre-/postemergence test; assay type: in vivo, Digitaria sanguinalis; details: Postemergence; for Plant response rating, Crabgrass, Large: scale 0 to 100, 0 no effect, 100 complete control
Summary of the method: as §2

[10] = system: Goosegrass; assay: Test C pre-/postemergence test; assay type: in vivo, Eleusin indica; details: Postemergence; for Plant response rating, Goosegrass: scale 0 to 100, 0 no effect, 100 complete control
Summary of the method: as §2

[11] = system: johnsongrass; assay: Test C pre-/postemergence test; assay type: in vivo, Sorghum halepense; details: Postemergence; for Plant response rating, Johnsongrass: scale 0 to 100, 0 no effect, 100 complete control
Summary of the method: as §2

[12] = system: yellow nutsedge; assay: Test C pre-/postemergence test; assay type: in vivo, Cyperus esculentus; details: Postemergence; for Plant response rating, Nutsedge, Yellow: scale 0 to 100, 0 no effect, 100 complete control
Summary of the method: as §2

[13] = system: pigweed; assay: Test C pre-/postemergence test; assay type: in vivo, Amaranthus retroflexus; details: Postemergence; for Plant response rating, Pigweed: scale 0 to 100, 0 no effect, 100 complete control
Summary of the method: as §2

[14] = system: soybean; assay: Test C pre-/postemergence test; assay type: in vivo, Glycine max; details: Postemergence; for Plant response rating, Soybean: scale 0 to 100, 0 no effect, 100 complete control
Summary of the method: as §2

[15] = system: umbrella sedge; assay: Test C flooded paddy test; assay type: in vivo, Cyperus difformis; details: Flood
Summary of the method: (§3)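 Under a constant 3 cm flood, test compounds went directly into the paddy water. Following 13 to 15 days of greenhouse growth, treated species and controls were compared by eye.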

[16] = system: duck salad; assay: Test C flooded paddy test; assay type: in vivo, Heteranthera limosa; details: Flood
Summary of the method: as §3

[17] = system: barnyardgrass; assay: Test C flooded paddy test; assay type: in vivo, Echinochloa crus-galli; details: Flood
Summary of the method: as §3

[18] = Postemergence, 500 g ai/ha, 0 is no effect, 100 is complete control
[19] = Preemergence, 125 g ai/ha, 0 no effect, 100 complete control
[20] = 62 g ai/ha, scale 0 to 100 (0 no effect, 100 complete control)
[21] = 250 g ai/ha, scale 0 to 100, 0 no effect, 100 complete control, 13 to 15 days

CCn1nc(C(F)(F)F)c(C(C)S(=O)(=O)c2cccc[n+]2[O-])c1OCC(F)(F)F (centres unmarked) [Compound 69]
Plant response rating, Barnyardgrass ([1]; Postemergence, 125 g ai/ha): 80
Barnyardgrass plant response rating [1, 18]: 90
Barnyardgrass plant response rating [1, 19]: 60
Plant response rating, Barnyardgrass ([1]; Preemergence, 500 g ai/ha): 100
Plant response rating, Crabgrass, Large ([2]; Postemergence, 125 g ai/ha): 80
Crabgrass, Large plant response rating [2, 18]: 90
Crabgrass, Large plant response rating [2, 19]: 40
Plant response rating, Crabgrass, Large ([2]; Preemergence, 500 g ai/ha): 100
Plant response rating, Velvetleaf ([3]; Postemergence, 125 g ai/ha): 50
Velvetleaf plant response rating [3, 18]: 80
Velvetleaf plant response rating [3, 19]: 10
Plant response rating, Velvetleaf ([3]; Preemergence, 500 g ai/ha): 100
Plant response rating, Corn ([4]; Postemergence, 125 g ai/ha): 60
Corn plant response rating [4, 18]: 80
Corn plant response rating [4, 19]: 0
Plant response rating, Corn ([4]; Preemergence, 500 g ai/ha): 80
Plant response rating (0 to 100), Foxtail, Green ([5]; 31 g ai/ha): 0
Plant response rating, Foxtail, Green ([5]; 62 g ai/ha): 0
Plant response rating, Foxtail, Green ([5]; 125 g ai/ha): 30
Plant response rating, Foxtail, Green ([5]; 250 g ai/ha): 90
Plant response rating (0 to 100), Ryegrass, Italian ([6]; 31 g ai/ha): 0
Plant response rating (0 to 100), Ryegrass, Italian ([6]; 62 g ai/ha): 40
Plant response rating, Ryegrass, Italian ([6]; 125 g ai/ha): 50
Plant response rating, Ryegrass, Italian ([6]; 250 g ai/ha): 95
Plant response rating (0 to 100), Bermudagrass ([7]; 31 g ai/ha): 0
Plant response rating, Bermudagrass ([7]; 62 g ai/ha): 0
Plant response rating, Bermudagrass ([7]; 125 g ai/ha): 0
Plant response rating, Bermudagrass ([7]; 250 g ai/ha): 50
Plant response rating (0 to 100), Corn ([8]; 31 g ai/ha): 0
Plant response rating, Corn ([8]; 62 g ai/ha): 0
Plant response rating, Corn ([8]; 125 g ai/ha): 0
Plant response rating, Corn ([8]; 250 g ai/ha): 0
Plant response rating (0 to 100), Crabgrass, Large ([9]; 31 g ai/ha): 0
Plant response rating, Crabgrass, Large ([9]; 62 g ai/ha): 0
Plant response rating, Crabgrass, Large ([9]; 125 g ai/ha): 0
Plant response rating, Crabgrass, Large ([9]; 250 g ai/ha): 0
Plant response rating (0 to 100), Goosegrass ([10]; 31 g ai/ha): 0
Plant response rating, Goosegrass ([10]; 62 g ai/ha): 0
Plant response rating, Goosegrass ([10]; 125 g ai/ha): 0
Plant response rating, Goosegrass ([10]; 250 g ai/ha): 40
Plant response rating (0 to 100), Johnsongrass ([11]; 31 g ai/ha): 0
Plant response rating, Johnsongrass ([11]; 62 g ai/ha): 0
Plant response rating, Johnsongrass ([11]; 125 g ai/ha): 20
Plant response rating, Johnsongrass ([11]; 250 g ai/ha): 40
Plant response rating (0 to 100), Nutsedge, Yellow ([12]; 31 g ai/ha): 0
Plant response rating, Nutsedge, Yellow ([12]; 62 g ai/ha): 0
Plant response rating, Nutsedge, Yellow ([12]; 125 g ai/ha): 0
Plant response rating, Nutsedge, Yellow ([12]; 250 g ai/ha): 0
Plant response rating (0 to 100), Pigweed ([13]; 31 g ai/ha): 0
Plant response rating (0 to 100), Pigweed ([13]; 62 g ai/ha): 0
Plant response rating, Pigweed ([13]; 125 g ai/ha): 0
Plant response rating, Pigweed ([13]; 250 g ai/ha): 0
Plant response rating (0 to 100), Soybean ([14]; 31 g ai/ha): 0
Plant response rating (0 to 100), Soybean ([14]; 62 g ai/ha): 30
Plant response rating, Soybean ([14]; 125 g ai/ha): 30
Plant response rating, Soybean ([14]; 250 g ai/ha): 35
Plant response rating, Sedge, Umbrella [15, 20]: 100
Plant response rating, Sedge, Umbrella [15, 21]: 100
Plant response rating, Ducksalad [16, 20]: 70
Plant response rating, Ducksalad [16, 21]: 100
Plant response rating, Barnyardgrass [17, 20]: 0
Plant response rating, Barnyardgrass [17, 21]: 75
